Test results reported in US11628146B2, “Estrogen receptor ligand treatment for neurodegenerative diseases” (The Regents of the University of California, priority 2014, dated 2023).
Entries after “also recorded” stand apart in the source; their conditions may differ.

Assays:
[1] = Dissolution of the compound in the oil vehicle; format: physicochemical; details: merely pipetting
Procedure: Reagents. AC-186 was dissolved in either Miglyol 812N liquid oil (Sasol North America) or sesame oil (Sigma Aldrich) as following concentration; 1.5 mg/mL for 3 mg/kg group, 5 mg/mL for 10 mg/kg group, and 15 mg/mL for 30 mg/kg group. Diarylpropionitrile (DPN, Tocris Biosciences) was dissolved in 10% molecular-grade ethanol and diluted with 90% of either Miglyol 812N liquid oil or sesame oil.
Three doses of the AC-186 compound were tested in C57BL6 female mice: low (3 mg/kg, every other day), medium (10 mg/kg, every other day), and high (30 mg/kg, every other day), each injected subcutaneously in a sesame oil vehicle. The ERβ ligand diarylpropionitrile (DPN) was tested as a positive control because DPN can partially ameliorate EAE and because the treatment effects in EAE experiments can vary based on the level of disease severity within an experiment. Direct comparisons between treatments were only made between treatment groups within a single EAE experiment and not between treatment groups of different EAE experiments. […] The difference in improvement between the 30 mg/kg AC-186 group and all other groups increased with time.

[2] = test system: cerebrum and cerebellum of female C57BL/6 mice with EAE; assay: Cerebral and cerebellar neuropathology (gray and white matter) in EAE; format: in vivo, mouse; details: 30 mg/kg every other day; vs Vehicle EAE
Procedure: Histological Preparation. Mice were exposed to a lethal dose of isoflurane and perfused transcardially with ice-cold 1×PBS for 8-15 min, followed by 10% formalin for 10-15 min. Spinal cords and brains were dissected and submerged in 10% formalin overnight at 4° C., followed by 30% sucrose in PBS for 24 h. Tissues were embedded in […] solution for cryostat sectioning then post-fixed overnight in 10% formalin and cryoprotected in 30% sucrose. The embedded tissues were stored in −80° C. after flash frozen in dry ice. 40 μm thick free-floating spinal cord cross-sections, and sagittal brain sections were obtained with a microtome b cryostat (model HM505E) at −20° C. Tissues were collected serially and stored in 1×PBS with 1% sodium azide in 4° C. until immunohistochemistry.
Immunofluorescence. Prior to histological staining, […] free-floating sections were thoroughly washed with 1×PBS to remove residual sodium azide. In the case of anti-MBP labeling, tissue sections were processed with an additional 1 hour incubation with 5% glacial acetic acid in 100-proof ethanol at room temperature (RT). After washing tissue sections were permeabilized with 0.3% TritonX-100 and 2% normal goat serum in 1×PBS for 30 minutes at room temperature and blocked with 10% normal goat serum in 1×PBS for 1 hour. Tissues were then incubated with primary antibodies overnight in 4° C. The following primary antibody (Ab) were used: Rat anti-MBP (Millipore) at 1:1000 dilutions, Rabbit anti-NF200 (Sigma Aldrich) at 1:750 dilutions, Rabbit anti-beta-APP (Life Technologies) at 1:200 dilutions, Mouse anti-NeuN at 1:1000 dilutions (Millipore), Rabbit anti-PSD95, and Rabbit anti-Synapsin 1 at 1:500 dilutions (Millipore), and Rat anti-CD45 at 1:1500 dilutions (Millipore). The next day tissues were washed and incubated with secondary antibodies conjugated to Cy5 or Cy3 (Millipore) for 1 hour at room temperature. A nuclear stain DAPI (2 ng/mL; Molecular Probes) was added 10 minutes prior to final washes after secondary Ab incubation. Sections were mounted on slides, allowed to semi-dry, and cover slipped in fluoromount G (Fisher Scientific). IgG-control experiments were performed for all primary Ab, and only non-immunoreactive tissues under these conditions were analyzed.
Chromagen Immunohistochemistry. […] Tissues were then incubated with primary antibodies overnight in 4° C. The following primary antibodies were used: Rat anti-CD3 at 1:2000 dilutions (BD Pharmingen), anti-Calbindin D28K at 1:1000 dilutions (Millipore), and Rabbit anti-Iba1 at 1:10000 dilutions (Wako Chemicals), were added for 2 hour at room temperature, and then placed in 4° C. overnight. Tissue sections then followed with secondary Ab labeling at 1:1000 dilutions (Vector labs) for 1 hour at room temperature and then with Avidin-Biotin Conjugation solution (Vector Labs) for 1 hour at room temperature. Tissue sections were treated with DAB peroxidase substrate (Vector labs) according to manufacturer instructions. IgG-control experiments were performed for all primary Ab, and only non-immunoreactive tissues under these conditions were analyzed.
Microscopy and Quantification. Three spinal cord cross-sections at the C5-12 level from each mouse (n=3-6) were captured under microscope at 10× magnification. To quantify demyelination in the spinal cord and cerebellum, white matter was manually delineated on the basis of DAPI staining, and MBP staining intensity was calculated and reported in the sampled area. Axonal damage was assessed by counting beta-APP^+ cells in a confocal 10× microscope in spinal cord. Axonal densities were calculated by counting the number of NF200^+ or NeuN^+ neuronal cells in a 10× confocal image in the sampled area of the captured tissue section. Cerebellar Purkinje (Calbindin^+) cells were manually counted using a brightfield 10× microscope over the entire sagittal cerebellum. […]

EAE in NOD mice = assay: Rotarod testing in EAE, NOD mice; format: in vivo, mouse; set-up: key to Rotarod Score: n.s. = not significant; *p < 0.05; ***p = 0.0004; ****p < 0.0001; n.i. = not informative
Procedure: Rotarod Testing. Motor behavior was tested up to two times per week for each mouse using a rotarod apparatus (Med Associates Inc., St. Albans, Vt.). Briefly, animals were placed on a rotating horizontal cylinder for a maximum of 200 seconds. The amount of time the mouse remained walking on the cylinder, without falling, was recorded. Each mouse was tested on a speed of 3-30 rpm and given three trials for any given day. The three trials were averaged to report a single value for an individual mouse, and then averages were calculated for all animals within a given treatment group. The first two trial days prior to immunization (day 0), served as practice trials.

Oc1ccc(C2(c3ccccc3F)CCC(F)(F)CC2)cc1 [AC-186]
Time to dissolve in miglyol [1]: 30 s | Axonal densities (NF200), cerebellar white matter [2]: a protective effect; also recorded: significantly more axon numbers | Axonal densities (NF200), cerebral white matter (splenium of the corpus callosum) [2]: a protective effect; also recorded: significantly more axon numbers | Calbindin+ Purkinje cells, cerebellar gray matter [2]: prevented; also recorded: a protective effect; also recorded: higher numbers of Calbindin^+ Purkinje cells | Myelin staining intensity (MBP), cerebellar white matter [2]: a protective effect; also recorded: higher MBP staining intensity | Myelin staining intensity (MBP), cerebral white matter (splenium of the corpus callosum) [2]: a protective effect; also recorded: a trend for higher MBP staining intensity | NeuN+ neuronal cells, cerebral cortex gray matter [2]: prevented; also recorded: a protective effect; also recorded: higher numbers of NeuN^+ cortical neurons | PSD-95 staining, cerebellar gray matter (molecular layer) [2]: prevented; also recorded: a protective effect; also recorded: greater PSD-95 and Synapsin1 staining | PSD-95 staining, cerebral cortex gray matter [2]: prevented; also recorded: a protective effect; also recorded: greater PSD-95 staining | Synapsin1 staining, cerebellar molecular layer [2]: a protective effect; also recorded: greater PSD-95 and Synapsin1 staining | Synapsin-1 staining, cerebral cortex gray matter [2]: No effect was observed; also recorded: no significant differences in Synapsin-1 staining | Rotarod Score (EAE in NOD mice; NOD F, AC186 10 mg/kg, miglylol vehicle): n.i. | Rotarod Score (EAE in NOD mice; NOD F, AC186 30 mg/kg, miglylol vehicle): n.i. | Rotarod Score (EAE in NOD mice; NOD F, AC186 30 mg/kg, sesame vehicle): n.i. | Rotarod Score (EAE in NOD mice; NOD M, AC186 10 mg/kg, miglylol vehicle): n.i. | Rotarod Score (EAE in NOD mice; NOD M, AC186 30 mg/kg, miglylol vehicle): n.i. | Rotarod times (EAE in NOD mice; NOD males, AC-186 in miglyol, vs vehicle): no significant improvement in performance in the rotarod experiment
